The values below come from patent publication US20250136606A1, “MODULATORS OF TRPML, THEIR COMPOSITIONS AND METHODS OF USE” (Caraway Therapeutics, Inc., priority 2021, published 2025).

The structures appear in SMILES notation. Where only a bound is given, the exact number is not on record here.

A word on the EC50: it is the midpoint of the concentration-response curve.

Holding throughout (format): cell-based
Common to all, as to settings: fluorescent calcium assay

In one assay the target is T1, TRPML3 (Homo sapiens, UniProt Q8TDD5).
T1 construct: expressed in transfected cells
T1 sequence (Q8TDD5 1-553): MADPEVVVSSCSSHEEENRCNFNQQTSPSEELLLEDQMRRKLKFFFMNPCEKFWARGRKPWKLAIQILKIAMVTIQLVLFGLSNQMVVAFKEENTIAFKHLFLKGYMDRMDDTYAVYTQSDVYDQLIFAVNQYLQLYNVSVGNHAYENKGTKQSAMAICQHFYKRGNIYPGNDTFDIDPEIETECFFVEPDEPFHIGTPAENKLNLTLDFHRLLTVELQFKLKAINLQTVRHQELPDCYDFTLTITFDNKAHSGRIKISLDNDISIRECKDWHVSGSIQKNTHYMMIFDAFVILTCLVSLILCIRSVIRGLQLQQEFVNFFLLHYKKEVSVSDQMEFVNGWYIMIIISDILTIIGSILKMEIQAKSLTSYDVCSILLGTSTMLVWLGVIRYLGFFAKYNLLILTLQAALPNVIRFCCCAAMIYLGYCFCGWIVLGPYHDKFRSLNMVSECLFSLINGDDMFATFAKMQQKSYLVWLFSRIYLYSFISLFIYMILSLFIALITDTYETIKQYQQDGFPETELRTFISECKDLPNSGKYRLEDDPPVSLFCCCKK
The assay is described as follows: Fluorescent TRPML3 assay (performed as for TRPML1, substituting the TRPML3 subtype). The method in brief: (§1)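 Calcium-influx readout: Fluo4 fluorescence at 480/540 nm, normalised to positive and negative controls per plate, EC50 fitted by non-linear regression. Cells were HEK-293 Trex stable lines, channel expression induced overnight with 0.5 ug/mL doxycycline; tested at 20 micromolar down to 6 nanomolar final, half-log steps, triplicate.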

Another assay deals with TRPML1 (Homo sapiens, UniProt Q9GZU1). The assay is described as follows: Fluorescent TRPML1 assay (Fluo4-AM calcium fluorescence in doxycycline-induced HEK-293 Trex cells). In outline:
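HEK-293 Trex cells stably carrying human TRPML1 (surface-trafficking mutant) were induced overnight with 0.5 ug/mL doxycycline, loaded with 1 micromolar Fluo4-AM, and suspended in Ringer's with 10 mM calcium. Compounds at 20 micromolar to 6 nanomolar final, half-log steps, triplicate; fluorescence 480/540 nm gave percent activity versus controls and EC50 by non-linear regression.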

The target in a further assay is T2, TRPML2 (Homo sapiens, UniProt Q8IZK6).
T2 construct: expressed in transfected cells
T2 sequence (Q8IZK6 1-566): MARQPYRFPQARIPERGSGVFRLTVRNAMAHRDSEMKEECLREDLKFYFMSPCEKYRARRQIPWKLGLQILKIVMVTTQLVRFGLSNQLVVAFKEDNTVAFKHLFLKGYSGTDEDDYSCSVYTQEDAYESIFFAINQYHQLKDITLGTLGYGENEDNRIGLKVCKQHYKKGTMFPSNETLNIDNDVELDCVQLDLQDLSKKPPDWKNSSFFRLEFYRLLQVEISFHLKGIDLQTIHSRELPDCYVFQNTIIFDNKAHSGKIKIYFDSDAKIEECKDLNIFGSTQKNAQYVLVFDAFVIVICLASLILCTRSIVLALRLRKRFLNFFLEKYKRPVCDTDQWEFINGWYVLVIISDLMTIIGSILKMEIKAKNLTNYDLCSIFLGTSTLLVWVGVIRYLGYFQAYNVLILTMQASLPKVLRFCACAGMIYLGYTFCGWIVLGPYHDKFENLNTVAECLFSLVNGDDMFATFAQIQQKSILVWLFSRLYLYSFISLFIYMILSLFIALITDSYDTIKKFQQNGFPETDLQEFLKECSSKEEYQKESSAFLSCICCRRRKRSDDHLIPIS
The assay is described as follows: Fluorescent TRPML2 assay (performed as for TRPML1, substituting the TRPML2 subtype). In outline:
as §1

TRPML1, sequence (Q9GZU1 whole entry L15A/L16A/L577A/L578A, form open): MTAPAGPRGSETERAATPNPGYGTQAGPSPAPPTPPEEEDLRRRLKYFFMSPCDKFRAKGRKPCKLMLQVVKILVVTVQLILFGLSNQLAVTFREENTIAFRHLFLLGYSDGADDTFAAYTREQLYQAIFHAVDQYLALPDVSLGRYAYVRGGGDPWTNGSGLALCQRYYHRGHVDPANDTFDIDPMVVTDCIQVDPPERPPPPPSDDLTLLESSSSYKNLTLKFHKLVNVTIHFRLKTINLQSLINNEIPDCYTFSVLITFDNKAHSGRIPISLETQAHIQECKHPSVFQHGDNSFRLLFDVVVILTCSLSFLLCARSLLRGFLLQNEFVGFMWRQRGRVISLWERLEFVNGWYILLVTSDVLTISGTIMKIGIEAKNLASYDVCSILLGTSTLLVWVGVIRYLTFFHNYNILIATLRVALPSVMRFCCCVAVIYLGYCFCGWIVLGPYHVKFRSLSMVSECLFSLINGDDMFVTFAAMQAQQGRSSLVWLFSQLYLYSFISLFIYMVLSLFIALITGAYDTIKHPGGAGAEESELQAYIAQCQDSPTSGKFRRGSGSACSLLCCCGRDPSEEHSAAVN

As to `C[C@@H]1CN(c2ncnc3c2c(C2CC2)cn3-c2cccc(F)c2F)CCN1C(=O)OC(C)(C)C` [Compound 205, tert-butyl (R)-4-(5-cyclopropyl-7-(2,3-difluorophenyl)-7H-pyrrolo[2,3-d]pyrimidin-4-yl)-2-methylpiperazine-1-carboxylate], the EC50 on TRPML3 was in the range of 100 to 500 nM; at TRPML1, 100 to 500 nM; at TRPML2, 500 to 2000 nM.
As for `C[C@@H]1CN(c2ncnc3c2c(C2CC2)cn3-c2cc(F)ccc2F)CCN1C(=O)OC(C)(C)C` [Compound 206, tert-butyl (R)-4-(5-cyclopropyl-7-(2,5-difluorophenyl)-7H-pyrrolo[2,3-d]pyrimidin-4-yl)-2-methylpiperazine-1-carboxylate], the EC50 at TRPML3 is 100 to 500 nM; on TRPML1, less than 100 nM; at TRPML2, 500 to 2000 nM.
As for `C[C@@H]1CN(c2ncnc3c2c(C2CC2)cn3-c2cc(F)c(F)c(Cl)c2)CCN1C(=O)OC(C)(C)C` [Compound 207, tert-butyl (R)-4-(7-(3-chloro-4,5-difluorophenyl)-5-cyclopropyl-7H-pyrrolo[2,3-d]pyrimidin-4-yl)-2-methylpiperazine-1-carboxylate], the figures for the EC50 at TRPML3, at TRPML1 and on TRPML2 were less than 100 nM, less than 100 nM and 100 to 500 nM, respectively.
As to `C[C@@H]1CN(c2ncnc3c2c(C2CC2)cn3-c2ccc(F)c(Cl)c2)CCN1C(=O)OC(C)(C)C` [Compound 208, tert-butyl (R)-4-(7-(3-chloro-4-fluorophenyl)-5-cyclopropyl-7H-pyrrolo[2,3-d]pyrimidin-4-yl)-2-methylpiperazine-1-carboxylate], the EC50 is less than 100 nM on TRPML3, less than 100 nM at TRPML1 and 100 to 500 nM at TRPML2.
Regarding `C[C@@H]1CN(C(=O)OC(C)(C)C)CCN1c1ncnc2c1c(N1CCCC1)cn2-c1cccc(Cl)c1` [Compound 209, tert-Butyl (R)-4-(7-(3-chlorophenyl)-5-(pyrrolidin-1-yl)-7H-pyrrolo[2,3-d]pyrimidin-4-yl)-3-methylpiperazine-1-carboxylate], the EC50 was less than 100 nM on TRPML3, less than 100 nM at TRPML1 and 100 to 500 nM at TRPML2.
On to `C[C@H]1CN(C(=O)OC(C)(C)C)CCN1c1ncnc2c1c(N1CCCC1)cn2-c1cccc(Cl)c1` [Compound 210, tert-Butyl (S)-4-(7-(3-chlorophenyl)-5-(pyrrolidin-1-yl)-7H-pyrrolo[2,3-d]pyrimidin-4-yl)-3-methylpiperazine-1-carboxylate], for which the EC50 on TRPML3, at TRPML1 and at TRPML2 was less than 100 nM in each case.
With `C[C@@H]1CN(C(=O)OC(C)(C)C)CCN1c1ncnc2c1c(C1CC1)cn2-c1cc(F)cc(F)c1` [Compound 211, tert-butyl (R)-4-(5-cyclopropyl-7-(3,5-difluorophenyl)-7H-pyrrolo[2,3-d]pyrimidin-4-yl)-3-methylpiperazine-1-carboxylate], the EC50 on TRPML3 was less than 100 nM; at TRPML1 it was 100 to 500 nM; at TRPML2, 500 to 2000 nM.
For `C[C@H]1CN(C(=O)OC(C)(C)C)CCN1c1ncnc2c1c(-c1cccnc1)cn2-c1ccc(F)c(Cl)c1` [Compound 212, tert-butyl (S)-4-(7-(3-chloro-4-fluorophenyl)-5-(pyridin-3-yl)-7H-pyrrolo[2,3-d]pyrimidin-4-yl)-3-methylpiperazine-1-carboxylate], in that order: less than 100 nM, less than 100 nM and 100 to 500 nM.
Taken in the same sequence, the figures for `C[C@H]1CN(C(=O)OC(C)(C)C)CCN1c1ncnc2c1c(-c1cccnc1)cn2-c1cc(F)cc(F)c1` [Compound 213, tert-butyl-(S)-4-(7-(3,5-difluorophenyl)-5-(pyridin-3-yl)-7H-pyrrolo[2,3-d]pyrimidin-4-yl)-3-methylpiperazine-1-carboxylate] were 100 to 500 nM, 100 to 500 nM and 500 to 2000 nM.
Turning to `C[C@@H]1CN(c2ncnc3c2c(-c2cccnc2)cn3-c2cc(F)cc(F)c2)CCN1C(=O)OC(C)(C)C` [Compound 214, tert-butyl (R)-4-(7-(3,5-difluorophenyl)-5-(pyridin-3-yl)-7H-pyrrolo[2,3-d]pyrimidin-4-yl)-2-methylpiperazine-1-carboxylate], the EC50 at TRPML3 was in the range of 100 to 500 nM; at TRPML1, 100 to 500 nM; on TRPML2, 500 to 2000 nM.
For `C[C@@H]1CN(c2ncnc3c2c(-c2ccccn2)cn3-c2cc(F)cc(F)c2)CCN1C(=O)OC(C)(C)C` [Compound 215, tert-butyl (R)-4-(7-(3,5-difluorophenyl)-5-(pyridin-2-yl)-7H-pyrrolo[2,3-d]pyrimidin-4-yl)-2-methylpiperazine-1-carboxylate], the EC50 on TRPML3 fell in the range of 100 to 500 nM; on TRPML1, 100 to 500 nM; on TRPML2 it was 500 to 2000 nM.
As to `C[C@@H]1CN(c2ncnc3c2c(-c2ccncc2)cn3-c2cc(F)cc(F)c2)CCN1C(=O)OC(C)(C)C` [Compound 216, tert-butyl (R)-4-(7-(3,5-difluorophenyl)-5-(pyridin-4-yl)-7H-pyrrolo[2,3-d]pyrimidin-4-yl)-2-methylpiperazine-1-carboxylate], the EC50 on TRPML3 is 100 to 500 nM; at TRPML1, less than 100 nM; on TRPML2, 500 to 2000 nM.
`C[C@H]1CN(C(=O)OC(C)(C)C)CCN1c1ncnc2c1c(C1CC1)cn2-c1cccc(F)c1F` [Compound 217, tert-butyl (S)-4-(5-cyclopropyl-7-(2,3-difluorophenyl)-7H-pyrrolo[2,3-d]pyrimidin-4-yl)-3-methylpiperazine-1-carboxylate]: the EC50 was 100 to 500 nM at TRPML3, 100 to 500 nM on TRPML1 and 500 to 2000 nM on TRPML2.
Turning to `C[C@H]1CN(C(=O)OC(C)(C)C)CCN1c1ncnc2c1c(C1CC1)cn2-c1cc(F)ccc1F` [Compound 218, tert-butyl (S)-4-(5-cyclopropyl-7-(2,5-difluorophenyl)-7H-pyrrolo[2,3-d]pyrimidin-4-yl)-3-methylpiperazine-1-carboxylate], the EC50 on TRPML3 was less than 100 nM; at TRPML1, less than 100 nM; on TRPML2 it was 500 to 2000 nM.
For the compound `C[C@H]1CN(C(=O)OC(C)(C)C)CCN1c1ncnc2c1c(C1CC1)cn2-c1ccc(F)c(F)c1` [Compound 219, tert-butyl (S)-4-(5-cyclopropyl-7-(3,4-difluorophenyl)-7H-pyrrolo[2,3-d]pyrimidin-4-yl)-3-methylpiperazine-1-carboxylate], the results for the EC50 at TRPML3, on TRPML1 and on TRPML2 were less than 100 nM, less than 100 nM and 100 to 500 nM, respectively.
Take `C[C@@H]1CN(c2ncnc3c2c(C2CC2)cn3-c2cccc(Cl)c2F)CCN1C(=O)OC(C)(C)C` [Compound 220, tert-butyl (R)-4-(7-(3-chloro-2-fluorophenyl)-5-cyclopropyl-7H-pyrrolo[2,3-d]pyrimidin-4-yl)-2-methylpiperazine-1-carboxylate]: the EC50 on TRPML3 was less than 100 nM; at TRPML1, less than 100 nM; at TRPML2 it was 100 to 500 nM.
Consider `C[C@@H]1CN(c2ncnc3c2c(-c2ccccn2)cn3-c2cc(F)cc(Cl)c2)CCN1C(=O)OC(C)(C)C` [Compound 221, tert-butyl (R)-4-(7-(3-chloro-5-fluorophenyl)-5-(pyridin-2-yl)-7H-pyrrolo[2,3-d]pyrimidin-4-yl)-2-methylpiperazine-1-carboxylate], for which the EC50 on TRPML3 is less than 100 nM; at TRPML1, less than 100 nM; on TRPML2 it was 100 to 500 nM.
